Assay results: PMC4401541, “Structure- and Ligand-Based Virtual Screening Identifies New Scaffolds for Inhibitors of the Oncoprotein MDM2” (PLoS ONE, 2015)
Values after ≈ are worked out from the molar mass of the structure shown.

Key:
[1] = molecular target: T1, MDM2-N (Homo sapiens, UniProt Q00987); assay: Competitive capillary electrophoresis (CE) assay, compound vs fluorescently labelled p53 peptide (p53-F); type: binding; details: for inhibition at 300 µM: read-out: CE % inhibition at 300 μM; for activity in the assays: CE and FP screening assays
Experimental: Capillary electrophoresis (CE) is an analytical technique used to study the interaction between biomacromolecules. In CE, electrophoresis is carried out in the interior of a narrow capillary. The technique separates ions based on their electrophoretic mobility with the use of applied voltage. The electrophoretic mobility is dependent on the charge of the molecule, the viscosity and the molecular size. CE is performed using a high voltage to produce a high resolution profile with a short migration time to separate numerous analytes. […] The assay provides a high sensitivity through the use of a Laser Induced Fluorescence (LIF) detector to enable the detection of weak binding fragments. This enables the interaction assay to be performed with a low labelled probe concentration and allows compounds to be screened at low concentrations. A competitive CE assay was used to detect competition between compounds and fluorescently labelled p53 peptide (p53-F) in MDM2-N/p53 binding site. The injection sample contained carboxyfluorescein (internal standard (10pM)) and p53-F (500pM) in TAPS/Tris (1mM) pH 8.0, DTT (1mM). […] After injection of the sample, a voltage of 10kV was applied and separation was carried out for 6.5min.
TR is the migration time of p53-F peak.
TL is the migration time of p53-F peak in the presence of MDM2-N + compound.

[2] = molecular target: T1, MDM2-N; assay: Fluorescence polarization (FP) competition assay with p53-F; type: binding; details: read-out: FP % inhibition at 700 μM; compound 700 μM; MDM2-N 500 nM; p53-F 2 nM
Experimental: Fluorescence polarization experiments were performed with a LJL Biosystems Analyst multi-plate reader in 50mM HEPES pH 7.5, 100mM NaCl, 1mM DTT. Fluorescein labelled p53 peptide (p53-F) was synthesised by Biomatiks. […] The competition experiments were carried out by mixing MDM2-N (500nM), p53-F (2nM) and test compound in black NBS plate. […] The inhibition (%) was calculated using the equation below. %Inhibition=100(AF-AL)/(AF-AU) Where: AF is the anisotropy of fully bound p53-F.
AU is the anisotropy of unbound p53-F.
AL is the anisotropy of p53-F in the presence of MDM2-N + compound.

[3] = Solubility of the fragments in assay buffer; type: physicochemical; details: aqueous buffer, read-out: Estimated solubility limit
From the text: Supplement pone.0121424.s006.docx, table 5 | column: Estimated solubility limit

[4] = system: MDM2; details: read-out: literature IC50 value for racemic Nutlin-3; cited from earlier work

Row | Compound | inhibition at 300 µM [1] [%] | inhibition at 700 µM [2] [%] | activity in the assays [1] | solubility [3] [µM] | IC50 [4] [nM]
1 | O=C(NCc1ccccc1)N(c1ccccc1)c1ccccc1 [Compound 19] | 42 | 18 | – | – | –
2 | CCn1c(=O)c2c(nc(-n3nc(C)cc3C)n2Cc2ccc(F)cc2)n(C)c1=O [Compound 25] | – | – | inactive | – | –
3 | CC1CCN(c2nc3c(c(=O)n(C)c(=O)n3C)n2CC(=O)c2ccccc2)CC1 [Compound 26] | – | – | inactive | – | –
4 | O=C1N[C@@](O)(c2ccccc2)c2ccccc21 [Compound 39] | 40 | 13 | – | – | –
5 | O=C1Cc2ccccc2N1 [Compound 40] | 28 | 8 | – | > 2000 | –
6 | Oc1cccc(Nc2ccccc2)c1 [Compound 41] | 66 | 31 | – | 250 to 500 (≈ 46.3 to 92.6 µg/mL) | –
7 | Oc1ccc(Nc2ccccc2)cc1 [Compound 42] | 52 | 60 | – | 250 to 500 (≈ 46.3 to 92.6 µg/mL) | –
8 | c1ccc(Nc2ccccc2)cc1 [Compound 43] | 36 | 33 | – | 250 to 500 (≈ 42.3 to 84.6 µg/mL) | –
9 | Nc1ccc(Nc2ccccc2)cc1 [Compound 44] | 30 | 8 | – | 62.5 to 125 (≈ 11.5 to 23 µg/mL) | –
10 | O=C(O)c1ccccc1Nc1ccccc1 [Compound 45] | – | – | – | > 1000 | –
